Experimental data published in patent US20030032587A1, “Urocortin peptides” (The Salk Institute for Biological Studies, priority 1995, published 2003).
Bridges are numbered along the chain shown (N, C = ends). Where no end group is shown, it is not given here. [ ]: non-standard residue; d: D form. Orn = NCCC[C@H](N)C(=O)O

Assays:
[1] = system: mammalian mean arterial blood pressure; test: in vivo test measuring elevation of mean arterial blood pressure as a result of iv injection; settings: result in words; indicative of a Ucn antagonist
Description: The peptide, Ucn(11-40), having the amino acid sequence (see SEQ ID NO: 8): […] is synthesized in the manner described in Example I. To evaluate the biological activity of a candidate peptide as a Ucn antagonist (which will be indicative of its effective binding to CRF receptors), the previously mentioned assay from Endocrinology, 91, supra, is run in the presence of a challenge dose of ovine CRF. […] An in vivo test measuring elevation of mean arterial blood pressure as a result of iv injection is also simply and straightforwardly performed.

[2] = molecular target: CRF receptors on anterior pituitary cells in culture; test: cell-based or functional assay

Row | ACTH secretion, anterior pituitary cell cultures, potency relative to r/hCRF [2] | Molecule | vasoconstrictive activity causing elevation of mean arterial blood pressure [1]
1 |  | H-Phe-His-Leu-Leu-Arg-Thr-Leu-Leu-Glu-Leu-Ala-Arg-Thr-Gln-Ser-Gln-Arg-Glu-Arg-Ala-Glu-Gln-Asn-Arg-Ile-Ile-Phe-Asp-Ser-Val-NH2 (H-FHLLRTLLELARTQSQRERAEQNRIIFDSV-NH2) [Ucn(11-40)] | significant mammalian vasoconstrictive activity
2 |  | H-[dF]HLLRTLLELARTQSQREEA[dR][Orn]NRIIFDSV-NH2 | significant mammalian vasoconstrictive activity
3 |  | H-[dF]HLLRTLLELARTQSQREKAEENRIIFDSV-NH2 | significant mammalian vasoconstrictive activity
4 |  | H-[dF]HLLRTLLELARTQSQREKA[dE]ENRIIFDSV-NH2 | significant mammalian vasoconstrictive activity
5 |  | H-[dY]HLLRTLLELARTQSQREEA[dE]KNRIIFDSV-NH2 | significant mammalian vasoconstrictive activity
6 |  | H-[dY]HLLRTLLELARTQSQRERAEQNRIIFDSV-NH2 [[D-Tyr^11]-Ucn(11-40)] | significant mammalian vasoconstrictive activity
7 | 6.14 times r/hCRF | Ac-PSLSIDLT[dF]HLLRTLLELARTQSQREEA[dE]KNRIIFDSV-NH2 (lactam 27-30; SMILES CC[C@H](C)[C@H](NC(=O)[C@H](CO)NC(=O)[C@H](CC(C)C)NC(=O)[C@H](CO)NC(=O)[C@@H]1CCCN1C(C)=O)C(=O)N[C@@H](CC(=O)O)C(=O)N[C@@H](CC(C)C)C(=O)N[C@H](C(=O)N[C@H](Cc1ccccc1)C(=O)N[C@@H](Cc1c[nH]cn1)C(=O)N[C@@H](CC(C)C)C(=O)N[C@@H](CC(C)C)C(=O)N[C@@H](CCCNC(=N)N)C(=O)N[C@H](C(=O)N[C@@H](CC(C)C)C(=O)N[C@@H](CC(C)C)C(=O)N[C@@H](CCC(=O)O)C(=O)N[C@@H](CC(C)C)C(=O)N[C@@H](C)C(=O)N[C@@H](CCCNC(=N)N)C(=O)N[C@H](C(=O)N[C@@H](CCC(N)=O)C(=O)N[C@@H](CO)C(=O)N[C@@H](CCC(N)=O)C(=O)N[C@@H](CCCNC(=N)N)C(=O)N[C@@H](CCC(=O)O)C(=O)N[C@H]1CCC(=O)NCCCC[C@@H](C(=O)N[C@@H](CC(N)=O)C(=O)N[C@@H](CCCNC(=N)N)C(=O)N[C@H](C(=O)N[C@H](C(=O)N[C@@H](Cc2ccccc2)C(=O)N[C@@H](CC(=O)O)C(=O)N[C@@H](CO)C(=O)N[C@H](C(N)=O)C(C)C)[C@@H](C)CC)[C@@H](C)CC)NC(=O)[C@@H](CCC(=O)O)NC(=O)[C@H](C)NC1=O)[C@@H](C)O)[C@@H](C)O)[C@@H](C)O) [(cyclo 29-32) [Ac-Pro3,D-Phe11, Glu29, D-Glu31, Lys32]-hUcn(3-40)] | 
8 | 1.23 times r/hCRF | [dY]DNPSLSIDLTFHLLRTLLELARTQSQRERAEQNRIIFDSV-NH2 [[D-Tyr0]hUcn(1-40)] | 
